# Marks after values point to notes of the source that are not given here.
# Assay: Growth performance of broilers given FeQ or FeTyr in water/feed, dirty litter Campylobacter challenge at day 20 (Example 1)
# Type: in vivo, Ross 308 male broilers
# Settings: for AFD (average feed intake) Day 0-20 / AWG (average weight gain) Day 0-20 / MFCR (mortality adjusted) Day 0-20: before challenge
# Method: A study was performed to evaluate growth promotion and reduction of Campylobacter carriage using FeQ and FeTyr in Ross 308 male broilers with 7 treatment groups. Each treatment group comprised four replicates of 10 birds per pen (40 birds/treatment group and 4 pens of 10 birds/treatment group), with 2 control groups and 5 test groups. All the test groups and one of the control groups were exposed at day 20 of the trial to dirty litter, which tested positive for Campylobacter. This method was used to provide a more natural method to Campylobacter challenge the birds. Thus there was a positive control where one treatment group was challenged with Campylobacter and one negative control group where the birds were not challenged, and five treatment groups that were all challenged with Campylobacter. The total number of birds used in the 7 treatment groups was 280. Treatment group 1 was a negative control where birds just received the commercial feed, and were not challenged with dirty litter containing Campylobacter. Treatment group 2 was the positive control where the birds received the commercial feed, and were challenged with dirty litter containing Campylobacter at day 20. Treatment group 3 received 0.22 g/L of FeQ in their drinking water and 0.22 g/Kg FeQ in their feed during the entire trial, and was challenged with dirty litter containing Campylobacter at day 20. Treatment group 5 received 0.22 g/L of FeQ in their drinking water during the entire trial, and was challenged with dirty litter containing Campylobacter at day 20. Treatment group 6 received 0.22 g/kg FeQ in their feed during the entire trial, and was challenged with dirty litter containing Campylobacter at day 20. Treatment group 7 received 0.022 g/L FeQ in their drinking water during the entire trial, and was challenged with dirty litter containing Campylobacter at day 20. Treatment group 8 received 0.02 g/L FeTyr in their drinking water during the entire trial, and was challenged with dirty litter containing Campylobacter at day 20. The FeTyr was pre-dissolved in DMSO, and diluted to provide a solution of 0.02 g/L of FeTyr in water. (An additional treatment group 4 was terminated due to solubility issues.)
# The birds were fed with a commercial three-phase feeding program using starter, grower and finisher feeds with formulations shown in Table 2. All diets had coccidiostat (MAXIBAN® at 0.0625% in starter and […] and MONTEBAN® at 0.06% in finisher phase). Xylanase (RONOZYME® WX at 200 g per ton) and phytase (RONOZYME® P at 150 grams per ton) were added to all diets.
# The feeding program is show in Table 3. The birds were reared in floor pens to day 42, and fed starter, grower and finisher feed at day 0 to 11, 11 to 24, and 24 to 42 days, respectively. All birds were weighed individually and feed weigh backs recorded per pen at day 0, 11, 21, 24 and 42 days.
# Prior to challenging the chickens with dirty litter containing Campylobacter at day 20, each pen was tested for Campylobacter using cloacal swabs. All pens tested negative for Campylobacter prior to the challenge. At day 20, litter, which was naturally Campylobacter-contaminated, was tested to confirm the presence of Campylobacter, and then added (approximately 2 kg/pen) to the litter in all pens except in pens for treatment group 1 (the negative control). At day 28, the pen litter was sampled to confirm the presence or absence of Campylobacter. At day 41 and 42, caecal samples were taken from 3 birds per pen (12 birds per treatment group) and tested for Campylobacter enumeration. At day 42, digesta, fecal samples, and caecal content was taken from all birds, and pooled per pen. Two birds per pen were also taken from treatment groups 1-3, euthanized, and blood samples taken. […]
# [1] = FeQ groups 3, 5, 6, 7 pooled, absence of Campylobacter challenge
# [2] = treatment 3: 0.22 g/L FeQ in water + 0.22 g/kg FeQ in feed
# [3] = treatment 5: 0.22 g/L FeQ in water
# [4] = treatment 6: 0.22 g/kg FeQ in feed
# [5] = treatment 7: 0.022 g/L FeQ in water
structure (smiles),measurement,setting,value
"O=C([O-])C1(O)CC(O)C(O)C(O)C1.O=C([O-])C1(O)CC(O)C(O)C(O)C1.O=C([O-])C1(O)CC(O)C(O)C(O)C1.[Fe+3] (centres unmarked) [FeQ, Ferric Quinate]",ABW (average body weight) Day 11,[1],0.339 kg
same,ABW (average body weight) Day 20,[1],0.963 kg
same,AFD (average feed intake) 0-20 days,[1],1.191 kg
same,AWG (average weight gain) 0-20 days,[1],0.923 kg
same,"effect on growth performance in the absence of Campylobacter challenge, first 20 days",compared with control groups 1 and 2,promotes growth of chicken
same,ABW (average body weight) Day 0,[2],0.040 kg
same,ABW (average body weight) Day 11,[2],0.346 kg
same,ABW (average body weight) Day 20,[2],0.972 kg
same,ABW (average body weight) Day 25,[2],1.424 kg
same,ABW (average body weight) Day 42,[2],3.342 kg
same,AFD (average feed intake) Day 0-11,[2],0.356 kg
same,AFD (average feed intake) Day 0-42,[2],5.267 kg
same,AFD (average feed intake) Day 11-20,[2],0.857 kg
same,AFD (average feed intake) Day 11-25,[2],1.524 kg
same,AFD (average feed intake) Day 20-25,[2],0.667 kg
same,AFD (average feed intake) Day 20-42,[2],4.054 kg
same,AFD (average feed intake) Day 25-42,[2],3.387 kg
same,AWG (average weight gain) Day 0-11,[2],0.306 kg
same,AWG (average weight gain) Day 0-42,[2],3.302^ab kg
same,AWG (average weight gain) Day 11-20,[2],0.625 kg
same,AWG (average weight gain) Day 11-25,[2],1.078 kg
same,AWG (average weight gain) Day 20-25,[2],0.453 kg
same,AWG (average weight gain) Day 20-42,[2],2.370^ab kg
same,AWG (average weight gain) Day 25-42,[2],1.918^ab kg
same,EPEF (European production and efficiency factor) Day 20,[2],350.4
same,EPEF (European production and efficiency factor) Day 42,[2],262.9
same,MFCR (mortality adjusted FCR) Day 11-20,[2],1.375
same,MFCR (mortality adjusted FCR) Day 11-25,[2],1.417
same,MFCR (mortality adjusted FCR) Day 20-25,[2],1.477
same,MFCR (mortality adjusted FCR) Day 25-42,[2],1.773
same,MFCR (mortality adjusted feed conversion ratio) Day 0-11,[2],1.181^ab
same,MFCR (mortality adjusted) Day 0-42,[2],1.595
same,MFCR (mortality adjusted) Day 20-42,[2],1.713
same,AFD (average feed intake) Day 0-20,[2],1.213 kg
same,AWG (average weight gain) Day 0-20,[2],0.931 kg
same,MFCR (mortality adjusted) Day 0-20,[2],1.310
same,ABW (average body weight) Day 0,[3],0.040 kg
same,ABW (average body weight) Day 11,[3],0.334 kg
same,ABW (average body weight) Day 20,[3],0.943 kg
same,ABW (average body weight) Day 25,[3],1.384 kg
same,ABW (average body weight) Day 42,[3],3.407 kg
same,AFD (average feed intake) Day 0-11,[3],0.352 kg
same,AFD (average feed intake) Day 0-42,[3],5.188 kg
same,AFD (average feed intake) Day 11-20,[3],0.821 kg
same,AFD (average feed intake) Day 11-25,[3],1.479 kg
same,AFD (average feed intake) Day 20-25,[3],0.658 kg
same,AFD (average feed intake) Day 20-42,[3],4.015 kg
same,AFD (average feed intake) Day 25-42,[3],3.357 kg
same,AWG (average weight gain) Day 0-11,[3],0.294 kg
same,AWG (average weight gain) Day 0-42,[3],3.367^ab kg
same,AWG (average weight gain) Day 11-20,[3],0.609 kg
same,AWG (average weight gain) Day 11-25,[3],1.050 kg
same,AWG (average weight gain) Day 20-25,[3],0.441 kg
same,AWG (average weight gain) Day 20-42,[3],2.464^ab kg
same,AWG (average weight gain) Day 25-42,[3],2.023^b kg
same,EPEF (European production and efficiency factor) Day 20,[3],352.0
same,EPEF (European production and efficiency factor) Day 42,[3],278.3
same,MFCR (mortality adjusted FCR) Day 11-20,[3],1.348
same,MFCR (mortality adjusted FCR) Day 11-25,[3],1.409
same,MFCR (mortality adjusted FCR) Day 20-25,[3],1.495
same,MFCR (mortality adjusted FCR) Day 25-42,[3],1.706
same,MFCR (mortality adjusted feed conversion ratio) Day 0-11,[3],1.210^ab
same,MFCR (mortality adjusted) Day 0-42,[3],1.560
same,MFCR (mortality adjusted) Day 20-42,[3],1.665
same,AFD (average feed intake) Day 0-20,[3],1.173 kg
same,AWG (average weight gain) Day 0-20,[3],0.903 kg
same,MFCR (mortality adjusted) Day 0-20,[3],1.303
same,ABW (average body weight) Day 0,[4],0.041 kg
same,ABW (average body weight) Day 11,[4],0.351 kg
same,ABW (average body weight) Day 20,[4],0.991 kg
same,ABW (average body weight) Day 25,[4],1.426 kg
same,ABW (average body weight) Day 42,[4],3.464 kg
same,AFD (average feed intake) Day 0-11,[4],0.360 kg
same,AFD (average feed intake) Day 0-42,[4],5.201 kg
same,AFD (average feed intake) Day 11-20,[4],0.841 kg
same,AFD (average feed intake) Day 11-25,[4],1.526 kg
same,AFD (average feed intake) Day 20-25,[4],0.685 kg
same,AFD (average feed intake) Day 20-42,[4],4.001 kg
same,AFD (average feed intake) Day 25-42,[4],3.315 kg
same,AWG (average weight gain) Day 0-11,[4],0.310 kg
same,AWG (average weight gain) Day 0-42,[4],3.423^b kg
same,AWG (average weight gain) Day 11-20,[4],0.640 kg
same,AWG (average weight gain) Day 11-25,[4],1.075 kg
same,AWG (average weight gain) Day 20-25,[4],0.434 kg
same,AWG (average weight gain) Day 20-42,[4],2.473^ab kg
same,AWG (average weight gain) Day 25-42,[4],2.039^b kg
same,EPEF (European production and efficiency factor) Day 20,[4],364.8
same,EPEF (European production and efficiency factor) Day 42,[4],265.0
same,MFCR (mortality adjusted FCR) Day 11-20,[4],1.343
same,MFCR (mortality adjusted FCR) Day 11-25,[4],1.440
same,MFCR (mortality adjusted FCR) Day 20-25,[4],1.599
same,MFCR (mortality adjusted FCR) Day 25-42,[4],1.704
same,MFCR (mortality adjusted feed conversion ratio) Day 0-11,[4],1.168^a
same,MFCR (mortality adjusted) Day 0-42,[4],1.563
same,MFCR (mortality adjusted) Day 20-42,[4],1.678
same,AFD (average feed intake) Day 0-20,[4],1.201 kg
same,AWG (average weight gain) Day 0-20,[4],0.951 kg
same,MFCR (mortality adjusted) Day 0-20,[4],1.284
same,ABW (average body weight) Day 0,[5],0.040 kg
same,ABW (average body weight) Day 11,[5],0.325 kg
same,ABW (average body weight) Day 20,[5],0.947 kg
same,ABW (average body weight) Day 25,[5],1.388 kg
same,ABW (average body weight) Day 42,[5],3.304 kg
same,AFD (average feed intake) Day 0-11,[5],0.348 kg
same,AFD (average feed intake) Day 0-42,[5],5.201 kg
same,AFD (average feed intake) Day 11-20,[5],0.829 kg
same,AFD (average feed intake) Day 11-25,[5],1.490 kg
same,AFD (average feed intake) Day 20-25,[5],0.661 kg
same,AFD (average feed intake) Day 20-42,[5],4.023 kg
same,AFD (average feed intake) Day 25-42,[5],3.362 kg
same,AWG (average weight gain) Day 0-11,[5],0.285 kg
same,AWG (average weight gain) Day 0-42,[5],3.265^ab kg
same,AWG (average weight gain) Day 11-20,[5],0.622 kg
same,AWG (average weight gain) Day 11-25,[5],1.064 kg
same,AWG (average weight gain) Day 20-25,[5],0.441 kg
same,AWG (average weight gain) Day 20-42,[5],2.357^ab kg
same,AWG (average weight gain) Day 25-42,[5],1.916^ab kg
same,EPEF (European production and efficiency factor) Day 20,[5],354.5
same,EPEF (European production and efficiency factor) Day 42,[5],276.2
same,MFCR (mortality adjusted FCR) Day 11-20,[5],1.333
same,MFCR (mortality adjusted FCR) Day 11-25,[5],1.406
same,MFCR (mortality adjusted FCR) Day 20-25,[5],1.513
same,MFCR (mortality adjusted FCR) Day 25-42,[5],1.793
same,MFCR (mortality adjusted feed conversion ratio) Day 0-11,[5],1.236^b
same,MFCR (mortality adjusted) Day 0-42,[5],1.612
same,MFCR (mortality adjusted) Day 20-42,[5],1.739
same,AFD (average feed intake) Day 0-20,[5],1.178 kg
same,AWG (average weight gain) Day 0-20,[5],0.907 kg
same,MFCR (mortality adjusted) Day 0-20,[5],1.302
same,effect on MFCR at day 42 compared with positive control (FIG. 2),"treatment groups 3, 5, 6, 7 and 8, challenged with dirty litter",positive effect on MFCR
same,effect on growth: average body weight at day 42 compared with positive control (FIG. 1),"treatment groups 3, 5, 6, 7 and 8, challenged with dirty litter containing Campylobacter",positive effect on growth
